Test results as given in PubChem BioAssay (NCI).
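Test compounds were applied to cells in 96-well plates for 48 hours at 5 doses. Abbreviation: GI50, concentration required for 50% inhibition of growth. TGI: concentration producing complete growth inhibition.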

Columns and labels:
Assay in all cases: NCI anticancer screen, dose series, 48 h
EKVX NSCLC = system: EKVX NSCLC
UO-31 renal = system: UO-31 renal
MDA-MB-231 breast = system: MDA-MB-231 breast
NCI-H522 lung = system: NCI-H522 lung
CAKI-1 renal = system: CAKI-1 renal
OVCAR-4 ovarian = system: OVCAR-4 ovarian
SR leukemia = system: SR leukemia
HCT-15 colon = system: HCT-15 colon
HCT-116 colon = system: HCT-116 colon
SK-MEL-2 melanoma = system: SK-MEL-2 melanoma
COLO 205 colon = system: COLO 205 colon
A498 renal = system: A498 renal
CCRF-CEM leukemia = system: CCRF-CEM leukemia
NCI-H460 lung = system: NCI-H460 lung
DU-145 prostate = system: DU-145 prostate
SF-295 CNS = system: SF-295 CNS
NCI-H226 lung = system: NCI-H226 lung
MDA-MB-435 = system: MDA-MB-435
BT-549 breast = system: BT-549 breast
SNB-19 CNS = system: SNB-19 CNS
M14 melanoma = system: M14 melanoma
OVCAR-3 ovarian = system: OVCAR-3 ovarian
KM12 colon = system: KM12 colon
PC-3 prostate = system: PC-3 prostate
TK-10 renal = system: TK-10 renal
LOX IMVI melanoma = system: LOX IMVI melanoma
HS 578T breast = system: HS 578T breast
HL-60(TB) leukemia = system: HL-60(TB) leukemia
SK-OV-3 ovarian = system: SK-OV-3 ovarian
HOP-92 NSCLC = system: HOP-92 NSCLC

With `O=C(N/N=C/c1ccc(Br)o1)c1[nH]c2ccc(Br)cc2c1-c1ccccc1` the GI50 (EKVX NSCLC) was 539 nM, the TGI (EKVX NSCLC) was 59900 nM and the GI50 (UO-31 renal) was 679 nM. It also gave a TGI (UO-31 renal) of 28800 nM, a GI50 (MDA-MB-231 breast) of 352 nM and a TGI (MDA-MB-231 breast) of 12300 nM. The GI50 (NCI-H522 lung) was 177 nM, the TGI (NCI-H522 lung) was 549 nM and the GI50 (CAKI-1 renal) was 424 nM. The TGI (CAKI-1 renal) was 24200 nM, the GI50 (OVCAR-4 ovarian) was 5390 nM and the TGI (OVCAR-4 ovarian) was greater than 53300 nM. It also gave a GI50 (SR leukemia) of 345 nM, a TGI (SR leukemia) of 22400 nM and a GI50 (HCT-15 colon) of 353 nM. The TGI (HCT-15 colon) was 23900 nM, the GI50 (HCT-116 colon) was 311 nM and the TGI (HCT-116 colon) was 4210 nM. The GI50 (SK-MEL-2 melanoma) was 407 nM, the TGI (SK-MEL-2 melanoma) was greater than 100000 nM and the GI50 (COLO 205 colon) was 227 nM. The TGI (COLO 205 colon) was 482 nM, the GI50 (A498 renal) was 23600 nM and the TGI (A498 renal) was greater than 69600 nM. For the same compound, the GI50 (CCRF-CEM leukemia) was 311 nM, the TGI (CCRF-CEM leukemia) was 17900 nM and the GI50 (NCI-H460 lung) was 326 nM. It also gave a TGI (NCI-H460 lung) of 10800 nM, a GI50 (DU-145 prostate) of 391 nM and a TGI (DU-145 prostate) of 14700 nM. For the same compound, the GI50 (SF-295 CNS) was 353 nM, the TGI (SF-295 CNS) was greater than 38600 nM and the GI50 (NCI-H226 lung) was 511 nM. For the same compound, the TGI (NCI-H226 lung) was 6320 nM, the GI50 (MDA-MB-435) was 216 nM and the TGI (MDA-MB-435) was 567 nM. The GI50 (BT-549 breast) was 379 nM, the TGI (BT-549 breast) was 2130 nM and the GI50 (SNB-19 CNS) was 455 nM. It also gave a TGI (SNB-19 CNS) greater than 81800 nM, a GI50 (M14 melanoma) of 351 nM and a TGI (M14 melanoma) of 30200 nM. It also gave a GI50 (OVCAR-3 ovarian) of 415 nM, a TGI (OVCAR-3 ovarian) of 17100 nM and a GI50 (KM12 colon) of 352 nM. The TGI (KM12 colon) was greater than 44500 nM, the GI50 (PC-3 prostate) was 398 nM and the TGI (PC-3 prostate) was greater than 53800 nM. The GI50 (TK-10 renal) was 5310 nM, the TGI (TK-10 renal) was greater than 46500 nM and the GI50 (LOX IMVI melanoma) was 336 nM. It also gave a TGI (LOX IMVI melanoma) of 16300 nM, a GI50 (HS 578T breast) of 323 nM and a TGI (HS 578T breast) of 12800 nM. The GI50 (HL-60(TB) leukemia) was 235 nM, the TGI (HL-60(TB) leukemia) was 690 nM and the GI50 (SK-OV-3 ovarian) was 731 nM. For the same compound, the TGI (SK-OV-3 ovarian) was greater than 65400 nM and the GI50 (HOP-92 NSCLC) was 1140 nM.
